# Data reported in the NIST ThermoML archive (doi:10.1021/acs.jced.7b00222).
# Where “and” joins values, the source holds several entries; their conditions need not be identical. Equal entries are not always repeated. ± gives the expanded uncertainty stated by the source.
# Settings: Liquid, Optical interferometry
smiles,measurement,setting,value
CO [methanol],thermal diffusivity,"297.95 K, 5300000 kPa",2.19e-07 ± 1.2e-08 m2/s
same,thermal diffusivity,"298.15 K, 4220000 kPa",2.17e-07 ± 1.2e-08 m2/s
same,thermal diffusivity,"299.15 K, 0 kPa",9.7e-08 ± 7e-09 m2/s
same,thermal diffusivity,"299.15 K, 880000 kPa",1.59e-07 ± 1.2e-08 m2/s
same,thermal diffusivity,"299.15 K, 2430000 kPa",1.86e-07 ± 1.4e-08 m2/s
same,thermal diffusivity,"299.15 K, 3100000 kPa",1.92e-07 ± 1.3e-08 m2/s
same,thermal diffusivity,"299.15 K, 3120000 kPa",1.99e-07 ± 1.3e-08 m2/s
same,thermal diffusivity,299.15 K,9.7e-08 ± 6e-09 m2/s
same,thermal diffusivity,"299.75 K, 5000000 kPa",2.37e-07 ± 4.5e-08 m2/s
same,thermal diffusivity,"299.85 K, 400000 kPa",1.32e-07 ± 1e-08 m2/s
same,thermal diffusivity,"300.15 K, 370000 kPa",1.35e-07 ± 1e-08 m2/s
same,thermal diffusivity,"300.75 K, 1750000 kPa",1.8e-07 ± 1e-08 m2/s
same,thermal diffusivity,"300.95 K, 860000 kPa",1.57e-07 ± 1.4e-08 m2/s
same,thermal diffusivity,"301.05 K, 1290000 kPa",1.7e-07 m2/s and 1.66e-07 m2/s
